In patent US9556228B2 (Universitaet Leipzig, priority 2011, dated 2017):
In brackets after ≈: the same amount, converted by molar mass. Entries after “also recorded” stand apart in the source; their conditions may differ. Peptide text beside a SMILES is read from it. * marks the point of attachment. Orn(α-tetramethylguanidino) = CN(C)C(=N[C@@H](CCCN)C(=O)*)N(C)C

What was measured:
S. aureus DSM 6247 [1] = assay type: cell-based, Staphylococcus aureus
[2] = tested on: Pseudomonas aeruginosa DSM 9644; assay type: cell-based
Procedure: (§1) The minimum inhibitory concentrations (MIC) of the peptides were determined in a double assay of triplicates using a positive control sample (gentamycin) and a negative control sample (0.9% NaCl solution), according to a modified protocol from Wiegand et al. (Wiegand, 2008).
(§2) […] Overnight cultures were adjusted using ⅛ MHB to approximately 1.5×10^7 colony forming units per mL. Of these, 50 μL of peptide solution per well was mixed with 50 μL bacteria solution each to obtain an initial concentration of […] bacteria per well. After 20 hours of incubation at 37′C, the absorption was determined at 595 nm (microplate reader, Wallac Victor3, Perkin Elmer). The minimum inhibitory concentration was identified as the lowest peptide concentration at which no bacterial growth could be detected.
(§3) In the experiment, the antibacterial activity of the peptides according to the invention in relation to the following bacterial strains was analyzed: Pseudomonas aeruginosa PAO1 (wt strain), Pseudomonas aeruginosa DSM 9644, Staphylococcus aureus DSM 1104/ATCC 25923, Staphylococcus aureus ATCC 6247, Escherichia coli UB 1005 (F—, nalA37, metB1) and Escherichia coli ATCC25922.

in vitro = details: for half-life: mouse
Procedure: The serum stability of selected apidaecin derivatives was also measured.

K. pneumoniae DSM 681 = assay type: cell-based
Procedure: as §1, §2

E. coli BL21AI = assay type: cell-based, Escherichia coli
[3] = tested on: Escherichia coli ATCC25922; assay type: cell-based
S. aureus DSM 6247 [4] = assay type: cell-based, Staphylococcus aureus; remark: listed apart in the source
Procedure: as §1
(§4) For this purpose, the peptides were dissolved in water and were diluted in a double dilution series with 1/8 MH (eight-fold diluted Mueller-Hinton-Medium—2.6 g/L, Merck) in sterile 96-well, plates (Greiner Bio-One GmbH) in twelve dilution steps from 128 μg/mL to 62.5 ng/mL. Overnight cultures were adjusted using ⅛ MHB to approximately 1.5×10^7 colony forming units per mL. Of these, 50 μL of peptide solution per well was mixed with 50 μL bacteria solution each to obtain an initial concentration of […] bacteria per well. After 20 hours of incubation at 37′C, the absorption was determined at 595 nm (microplate reader, Wallac Victor3, Perkin Elmer). The minimum inhibitory concentration was identified as the lowest peptide concentration at which no bacterial growth could be detected.
as §3

E. coli DSM 1103 = assay type: cell-based, Escherichia coli
Procedure: as §1, §4

Compound | MIC S. aureus DSM 6247 MHB (S. aureus DSM 6247 [1]) [mg/L] | MIC P. aeruginosa DSM 9644 TSB [2] [mg/L] | MIC K. pneumoniae DSM 681 TSB (K. pneumoniae DSM 681) [mg/L] | MIC E. coli BL21AI TSB (E. coli BL21AI) [mg/L] | MIC E. coli ATCC 25922 TSB [3] [mg/L] | MIC P. aeruginosa PAO DSM 9644 [2] [mg/L] | MIC S. aureus DSM 6247 (S. aureus DSM 6247 [4]) [mg/L] | MIC E. coli DSM 1103 (E. coli DSM 1103) [mg/L] | also measured
CC[C@H](C)[C@H](NC(=O)[C@H](Cc1ccc(O)cc1)NC(=O)[C@@H](NC(=O)[C@@H]1CCCN1C(=O)[C@H](CCCNC(=N)N)NC(=O)[C@H](CC(N)=O)NC(=O)[C@H](CC(N)=O)NC(=O)[C@H](CCCN)N=C(N(C)C)N(C)C)C(C)C)C(=O)N1CCC[C@H]1C(=O)N[C@@H](CCCNC(=N)N)C(=O)N1CCC[C@H]1C(=O)N[C@@H](CCCNC(=N)N)C(=O)N1CCC[C@H]1C(=O)N1CCC[C@H]1C(=O)N[C@@H](Cc1c[nH]cn1)C(=O)N1CCC[C@H]1C(=O)N[C@@H](CCCNC(=N)N)C(=O)N[C@@H](CC(C)C)C(=O)O [compound 93] ({Orn(α-tetramethylguanidino)}-NNRPVYIPRPRPPHPRL-OH; N-terminus and C-terminus assumed) | 16 to 32 | 16 (≈ 6.98 µM) | 2 (≈ 0.873 µM) | 1 (≈ 0.436 µM) | 4 (≈ 1.75 µM) |  |  |  | half-life (in vitro; 100% mouse serum): 5.83 ± 0.567 h
CC[C@H](C)[C@H](NC(=O)[C@H](Cc1ccc(O)cc1)NC(=O)[C@@H](NC(=O)[C@@H]1CCCN1C(=O)[C@H](CCCNC(=N)N)NC(=O)[C@H](CC(N)=O)NC(=O)[C@H](Cc1c[nH]c2ccccc12)NC(=O)[C@H](CCCN)N=C(N(C)C)N(C)C)C(C)C)C(=O)N1CCC[C@H]1C(=O)N[C@@H](CCCNC(=N)N)C(=O)N1CCC[C@H]1C(=O)N[C@@H](CCCNC(=N)N)C(=O)N[C@@H](CCCNC(=N)N)C(=O)N1CCC[C@H]1C(=O)N[C@@H](Cc1c[nH]cn1)C(=O)N1CCC[C@H]1C(=O)N[C@@H](CCCNC(=N)N)C(=O)N[C@@H](CC(C)C)C(N)=O [compound 89] ({Orn(α-tetramethylguanidino)}-WNRPVYIPRPRRPHPRL-NH2; N-terminus and C-terminus assumed) | 2 (≈ 0.826 µM) | 8 (≈ 3.3 µM) | >64 | 8 (≈ 3.3 µM) | 16 (≈ 6.61 µM) | 4 (≈ 1.65 µM) | 8 to 16 | 8 (≈ 3.3 µM) | half-life (in vitro; 25% mouse serum): 0.267 ± 0.0167 h
CC[C@H](C)[C@H](NC(=O)[C@H](Cc1ccc(O)cc1)NC(=O)[C@@H](NC(=O)[C@@H]1CCCN1C(=O)[C@H](CCCNC(=N)N)NC(=O)[C@H](CC(N)=O)NC(=O)[C@H](CC(N)=O)NC(=O)[C@H](CCCN)N=C(N(C)C)N(C)C)C(C)C)C(=O)N1CCC[C@H]1C(=O)N[C@@H](CCCNC(=N)N)C(=O)N1CCC[C@H]1C(=O)N[C@@H](CCCNC(=N)N)C(=O)N1CCC[C@H]1C(=O)N1CCC[C@H]1C(=O)N[C@@H](Cc1c[nH]cn1)C(=O)N1CCC[C@H]1C(=O)N[C@@H](CCCNC(=N)N)C(=O)N[C@@H](CC(C)C)C(N)=O [compound 92] ({Orn(α-tetramethylguanidino)}-NNRPVYIPRPRPPHPRL-NH2; N-terminus and C-terminus assumed) | 8 (≈ 3.49 µM) | 8 (≈ 3.49 µM) | 2 (≈ 0.873 µM) | 1 (≈ 0.437 µM) | 2 (≈ 0.873 µM) |  |  |  | half-life (in vitro; 25% mouse serum): 0.25 ± 0.0167 h
CC[C@H](C)[C@H](NC(=O)[C@H](Cc1ccc(O)cc1)NC(=O)[C@@H](NC(=O)[C@@H]1CCCN1C(=O)[C@H](CCCNC(=N)N)NC(=O)[C@H](CC(N)=O)NC(=O)[C@H](CC(N)=O)NC(=O)[C@H](CCCN)N=C(N(C)C)N(C)C)C(C)C)C(=O)N1CCC[C@H]1C(=O)N[C@@H](CCCNC(=N)N)C(=O)N1CCC[C@H]1C(=O)N[C@@H](CCCNC(=N)N)C(=O)N1CCC[C@H]1C(=O)N1CCC[C@H]1C(=O)N[C@@H](Cc1c[nH]cn1)C(=O)N1CCC[C@H]1C(=O)N[C@@H](CCCNC(=N)N)C(=O)N[C@@H](CCCNC(=N)N)C(=O)O [compound 84] ({Orn(α-tetramethylguanidino)}-NNRPVYIPRPRPPHPRR-OH) |  |  |  |  |  | 64 (≈ 27.4 µM) | 8 (≈ 3.43 µM) | 4 (≈ 1.71 µM) | 
gu-OWNRPVYIPRPRRPHPRL-OH |  |  |  |  |  |  |  |  | fragment found (100% mouse serum): gu-O1-R12 (Api341 analogue)
gu-OWNRPVYIPRPRRPHPRL-NH2 |  |  |  |  |  |  |  |  | fragment found (25% mouse serum): gu-O1-R17; also recorded: gu-O1-R12
gu-ONNRPVYIPRPRPPHPRL-OH |  |  |  |  |  |  |  |  | fragment found (100% mouse serum): gu-O1-R17
CC[C@H](C)[C@H](NC(=O)[C@H](Cc1ccc(O)cc1)NC(=O)[C@@H](NC(=O)[C@@H]1CCCN1C(=O)[C@H](CCCNC(=N)N)NC(=O)[C@H](CC(N)=O)NC(=O)[C@H](Cc1c[nH]c2ccccc12)NC(=O)[C@H](CCCN)N=C(N(C)C)N(C)C)C(C)C)C(=O)N1CCC[C@H]1C(=O)N[C@@H](CCCNC(=N)N)C(=O)N1CCC[C@H]1C(=O)N[C@@H](CCCNC(=N)N)C(=O)N[C@@H](CCCNC(=N)N)C(=O)N1CCC[C@H]1C(=O)N[C@@H](Cc1c[nH]cn1)C(=O)N1CCC[C@H]1C(=O)N[C@@H](CCCNC(=N)N)C(=O)N[C@@H](CC(C)C)C(=O)O [compound 87] ({Orn(α-tetramethylguanidino)}-WNRPVYIPRPRRPHPRL-OH; N-terminus and C-terminus assumed) | 4 (≈ 1.65 µM) | 8 (≈ 3.3 µM) | 4 to 8 | 8 (≈ 3.3 µM) | 8 (≈ 3.3 µM) | 8 (≈ 3.3 µM) | 16 (≈ 6.6 µM) | 8 (≈ 3.3 µM) | peptide remaining, printed in the column t1/2 100% serum (in vitro; 100% mouse serum, after 2 hours): 0% after
gu-ONNRPVYIPRPRPPHPRL-NH2 |  |  |  |  |  |  |  |  | fragment found (25% mouse serum): gu-O1-R17
gu-OWNRPVYIPRPRPPHPRL-OH |  |  |  |  |  |  |  |  | fragment found (100% mouse serum): gu-O1-R17
CC[C@H](C)[C@H](NC(=O)[C@H](Cc1ccc(O)cc1)NC(=O)[C@@H](NC(=O)[C@@H]1CCCN1C(=O)[C@H](CCCNC(=N)N)NC(=O)[C@H](CC(N)=O)NC(=O)[C@H](CC(N)=O)NC(=O)[C@H](CCCN)N=C(N(C)C)N(C)C)C(C)C)C(=O)N1CCC[C@H]1C(=O)N[C@@H](CCCNC(=N)N)C(=O)N1CCC[C@H]1C(=O)N[C@@H](CCCNC(=N)N)C(=O)N[C@@H](CCCNC(=N)N)C(=O)N1CCC[C@H]1C(=O)N[C@@H](Cc1c[nH]cn1)C(=O)N1CCC[C@H]1C(=O)N[C@@H](CCCNC(=N)N)C(=O)N[C@@H](CC(C)C)C(=O)O [compound 86] ({Orn(α-tetramethylguanidino)}-NNRPVYIPRPRRPHPRL-OH) |  |  |  |  |  | 32 (≈ 13.6 µM) | 32 (≈ 13.6 µM) | 8 (≈ 3.4 µM) | 
CC[C@H](C)[C@H](NC(=O)[C@H](Cc1ccc(O)cc1)NC(=O)[C@@H](NC(=O)[C@@H]1CCCN1C(=O)[C@H](CCCNC(=N)N)NC(=O)[C@H](CC(N)=O)NC(=O)[C@H](Cc1c[nH]c2ccccc12)NC(=O)[C@H](CCCN)N=C(N(C)C)N(C)C)C(C)C)C(=O)N1CCC[C@H]1C(=O)N[C@@H](CCCNC(=N)N)C(=O)N1CCC[C@H]1C(=O)N[C@@H](CCCNC(=N)N)C(=O)N1CCC[C@H]1C(=O)N1CCC[C@H]1C(=O)N[C@@H](Cc1c[nH]cn1)C(=O)N1CCC[C@H]1C(=O)N[C@@H](CCCNC(=N)N)C(=O)N[C@@H](CC(C)C)C(=O)O [compound 85] ({Orn(α-tetramethylguanidino)}-WNRPVYIPRPRPPHPRL-OH; N-terminus and C-terminus assumed) | 4 (≈ 1.69 µM) | 8 to 16 | 2 (≈ 0.846 µM) | 2 (≈ 0.846 µM) | 4 (≈ 1.69 µM) | 16 (≈ 6.77 µM) | 16 (≈ 6.77 µM) | 4 (≈ 1.69 µM) | half-life (in vitro; 100% mouse serum): 3.95 ± 0.25 h
